Measured values taken from patent US20030004187A1, “Method for preventing dyskinesias” (priority 2001, published 2003).
Values joined by “and” are separate entries in the source; they are usually repeats but may differ in a detail not shown here. Equal entries are not always repeated.

Experiments:
[1] = tested on: MPTP monkey; assay: Side effects and stereotypies observed during 1-month treatment; details: CI-1041 10 mg/kg per os with L-Dopa
Experimental: The experiments were performed in accordance with the standards of the Canadian Council on Animal care using eight female cynomolgus (Macaca fascicularis) monkeys weighing 3.0 to 3.5 kg. They were housed separately in individual observation cages equipped with an electronic motility monitoring system (Datascience, St. Paul, Minnesota) in a temperature-controlled room and exposed to a 12-hour light/dark cycle (lights on 6 AM-6 PM). They were fed once daily in the afternoon (certified primate chow and fruits), and water was provided ad libitum. […] The animals were scored several times a week using a disability scale described below, where the normal state extends from 0 to 2, and maximal disability is 16 points. […]
The severity of dyskinesias was also rated every 30 minutes for each body segment: the face, neck, trunk, arms, and legs in the following way: None=0; Mild=1; Moderate=2; Severe=3. The difference between mild, moderate, and severe dyskinesias for a given body segment is based on the assessment of the amplitude of the abnormal movements and the frequency (whether they are occasional, intermittent, or constant); each body segment being scored separately based on assessment of observation in the preceding half hour. […]

[2] = tested on: MPTP monkey; assay: Delay and duration of L-Dopa response; assay type: in vivo, cynomolgus (Macaca fascicularis) monkeys; design: Delay of L-Dopa response / Duration of L-Dopa response: unit not given here; details: for Delay of L-Dopa response / Duration of L-Dopa response: mean ± SEM
[3] = tested on: 6-OHDA-lesioned hemiparkinsonian rat model; details: cited from earlier work
[4] = tested on: MPTP-treated monkeys; details: 3 to 30 mg/kg, cited from earlier work
[5] = target: NR1A/2B cloned NMDA receptors (Homo sapiens, UniProt Q05586+Q13224); details: cited from earlier work
Sequence of NR1A/2B cloned NMDA receptors (Q13224 27-1484, other chains not shown): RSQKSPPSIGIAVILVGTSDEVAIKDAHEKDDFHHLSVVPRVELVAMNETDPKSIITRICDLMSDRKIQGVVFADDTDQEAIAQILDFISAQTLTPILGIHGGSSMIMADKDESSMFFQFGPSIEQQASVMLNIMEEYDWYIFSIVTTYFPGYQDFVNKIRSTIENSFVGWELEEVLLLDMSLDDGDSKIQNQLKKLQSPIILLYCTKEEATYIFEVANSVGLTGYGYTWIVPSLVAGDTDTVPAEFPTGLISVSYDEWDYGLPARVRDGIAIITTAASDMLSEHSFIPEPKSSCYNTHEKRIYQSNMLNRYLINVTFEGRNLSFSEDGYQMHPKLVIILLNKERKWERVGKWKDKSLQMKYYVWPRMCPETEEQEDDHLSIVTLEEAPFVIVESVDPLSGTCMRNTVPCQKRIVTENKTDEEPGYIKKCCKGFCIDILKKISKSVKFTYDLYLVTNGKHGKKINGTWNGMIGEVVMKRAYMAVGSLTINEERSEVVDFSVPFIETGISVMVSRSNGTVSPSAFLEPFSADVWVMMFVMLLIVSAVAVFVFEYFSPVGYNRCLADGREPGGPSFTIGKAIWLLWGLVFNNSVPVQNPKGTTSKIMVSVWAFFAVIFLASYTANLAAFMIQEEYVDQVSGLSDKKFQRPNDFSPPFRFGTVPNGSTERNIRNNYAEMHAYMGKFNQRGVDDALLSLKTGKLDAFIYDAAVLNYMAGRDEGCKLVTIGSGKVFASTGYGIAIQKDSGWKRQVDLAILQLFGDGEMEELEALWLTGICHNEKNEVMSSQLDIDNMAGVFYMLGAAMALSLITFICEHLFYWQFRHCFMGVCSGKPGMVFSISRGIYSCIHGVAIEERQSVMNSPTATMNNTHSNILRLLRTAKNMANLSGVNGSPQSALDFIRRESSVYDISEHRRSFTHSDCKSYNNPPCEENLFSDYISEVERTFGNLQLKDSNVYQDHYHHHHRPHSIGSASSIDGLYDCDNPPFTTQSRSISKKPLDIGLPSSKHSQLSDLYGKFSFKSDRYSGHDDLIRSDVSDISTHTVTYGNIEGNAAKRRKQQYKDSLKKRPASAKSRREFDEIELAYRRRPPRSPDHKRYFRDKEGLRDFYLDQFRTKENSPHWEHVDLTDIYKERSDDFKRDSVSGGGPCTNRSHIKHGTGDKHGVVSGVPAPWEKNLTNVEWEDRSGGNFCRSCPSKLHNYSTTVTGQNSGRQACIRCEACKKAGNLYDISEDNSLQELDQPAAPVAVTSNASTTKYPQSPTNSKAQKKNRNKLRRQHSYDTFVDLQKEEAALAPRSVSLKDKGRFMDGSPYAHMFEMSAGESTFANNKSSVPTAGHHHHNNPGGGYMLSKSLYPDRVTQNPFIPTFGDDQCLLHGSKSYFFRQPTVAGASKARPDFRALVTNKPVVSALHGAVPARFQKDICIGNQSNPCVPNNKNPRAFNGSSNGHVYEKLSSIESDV

[6] = tested on: MPTP monkey; assay: Induction of L-Dopa-induced dyskinesias in de novo MPTP parkinsonian monkeys (dyskinetic score); assay type: in vivo, cynomolgus (Macaca fascicularis) monkeys; details: for Dyskinesia induction (in words): 4 weeks treatment, L-Dopa/benserazide 100/25 mg alone or plus CI-1041 10 mg/kg per os, FIG. 1
[7] = tested on: PD patients; details: cited from earlier work
[8] = tested on: MPTP monkey; assay: Locomotor activity by electronic motility monitoring system; assay type: in vivo, cynomolgus (Macaca fascicularis) monkeys; details: FIG. 2B; maintained during the 4 weeks
[9] = tested on: MPTP monkey; assay: Antiparkinsonian response, disability scale for MPTP monkey (parkinsonian score); assay type: in vivo, cynomolgus (Macaca fascicularis) monkeys
[10] = tested on: 6-OHDA-lesioned rats; details: systemic administration; cited from earlier work
[11] = tested on: PD patients; details: published observation in PD patients; cited from earlier work

**Q.** Which “Side effects / tolerability” value [1] does the source give for O=c1[nH]c2ccc([S+]([O-])CCN3CCC(Cc4ccc(F)cc4)CC3)cc2o1 (centres unmarked) [CI-1041, 6-{2-[4-(4-fluoro-benzyl)-piperidin-1-yl]-ethanesulfinyl}-3H-benzooxazol-2-one] here?
**A.** well-tolerated and no emesis, ataxia, or hallucinations were observed

**Q.** What about the “Effect of CI-1041 co-administration on delay and duration of the L-Dopa response (in words)” value ([2]; trend for delayed response in first 2 weeks) of the same molecule?
**A.** not significantly affected

**Q.** What about the “Contraversive rotation induced by L-Dopa” value ([3]; peak rate and duration increased, maintained following 9 days of repeated co-administration) of the same molecule?
**A.** potentiated the contraversive rotation

**Q.** What about the “Rotation induced by direct acting dopamine agonists SKF 38393 and quinpirole” value ([3]; rat, in vivo) of the same molecule?
**A.** potentiated rotation

**Q.** And the “Rotation when given alone” value ([3]; rat, in vivo)?
**A.** increased both contraversive and ipsiversive rotations

**Q.** And the “Alteration in the antiparkinsonian effects of L-Dopa” value ([4]; in combination with L-Dopa)?
**A.** did not produce a consistent alteration

**Q.** What about the “Antiparkinsonian activity when administered alone” value [4] of the same molecule?
**A.** did not exhibit any antiparkinsonian activity

**Q.** What about the “Affinity, block of NR2B-containing NMDA receptors” value ([5]; allosteric modulation site) of the same molecule?
**A.** 24 nM

**Q.** And the “Selectivity for NR1A/2B cloned NMDA receptors” value [5]?
**A.** > 1000 fold

**Q.** And the “Dyskinesia induction (in words)” value ([6]; 10 mg/kg)?
**A.** prevented dyskinesias

**Q.** And the “Dyskinesia induction (in words)” value ([6]; listed as C-1041)?
**A.** completely prevented the induction of dyskinesias in three animals

**Q.** Which results are given for N[C@@H](Cc1ccc(O)c(O)c1)C(=O)O [L-Dopa]?
**A.** Delay of L-Dopa response ([2]; Day 7): 47.3 ± 4.4^; Duration of L-Dopa response ([2]; Day 7): 221.3 ± 46.0^; Delay of L-Dopa response ([2]; Day 14): 59.5 ± 17.2; Duration of L-Dopa response ([2]; Day 14): 189.3 ± 29.5^; Delay of L-Dopa response ([2]; Day 21): 52.5 ± 10.3^; Duration of L-Dopa response ([2]; Day 21): 222.5 ± 24.6^; Delay of L-Dopa response ([2]; Day 28): 50 ± 5.8; Duration of L-Dopa response ([2]; Day 28): 198.75 ± 25.5; Prevalence of dyskinesias ([7]; human, in vivo): 30-80%; Locomotion as compared to control (in words) [8]: significant (P<0.01) increase in locomotion; Dyskinesia induction (in words) [6]: moderate to severe; Persistent Dyskinesia (Max Score), Mean ± SEM ([6]; group mean ± SEM, n=4): 7.1 ± 1.3; Persistent Dyskinesia ([6]; individual animal, Yes/None, 28 days treatment): Yes; Persistent Dyskinesia (Max Score) ([6]; individual animal, maximum dyskinetic score, maximal score 21): 8.5 and 4 and 6 and 10; Parkinsonian scores as compared to the control (in words) ([9]; FIG. 2A): significantly (P<0.01) lowered; Antiparkinsonian Efficacy (Min. Score), Mean ± SEM ([9]; group mean ± SEM, n=4, 28 days treatment): 3.3 ± 0.2; Antiparkinsonian Efficacy ([9]; individual animal, grade in words, 28 consecutive days of daily oral treatment): Good; Antiparkinsonian Efficacy (Min. Score) ([9]; individual animal, minimum parkinsonian score, maximal disability 16, 28 days treatment): 2.8 and 3.7 and 3.4 (2×)

**Q.** Which L-Dopa-induced motor fluctuations [10] does the source give for C[C@]12N[C@H](Cc3ccccc31)c1ccccc12 [MK-801] here?
**A.** completely reversed and more interestingly prevented

**Q.** With NC12CC3CC(CC(C3)C1)C2 [amantadine] as the molecule, how does the “L-Dopa-induced dyskinesias in PD patients” value ([7]; human, in vivo) read?
**A.** reduced L-Dopa-induced dyskinesias

**Q.** What about the “Maintenance of beneficial effects on motor response complications after treatment initiation” value ([7]; one study) of the same molecule?
**A.** at least 1 year

**Q.** With COc1ccc2c(c1)[C@]13CCCC[C@@H]1[C@H](C2)N(C)CC3 [dextromethorphan] as the molecule, how does the “L-Dopa-induced dyskinesias in PD patients” value ([7]; human, in vivo) read?
**A.** reduced L-Dopa-induced dyskinesias

**Q.** For CCCN[C@H]1CCc2nc(N)sc2C1 [pramipexole], which Sleep attacks [11] is on record?
**A.** episodes of sudden onset of sleep

**Q.** Which Sleep attacks [11] does the source give for CCCN(CCC)CCc1cccc2c1CC(=O)N2 [ropinirole] here?
**A.** episodes of sudden onset of sleep
